The values below come from patent EP4778931A1, “ULK1 INHIBITOR, PREPARATION METHOD THEREFOR AND USE THEREOF” (Dovetree Medicines Unus, Inc., priority 2023, dated 2025).

In one assay the target is T1, ULK1 (Homo sapiens, UniProt O75385).
T1 construct: purchased Promega V3521
T1 sequence (O75385 1-1050): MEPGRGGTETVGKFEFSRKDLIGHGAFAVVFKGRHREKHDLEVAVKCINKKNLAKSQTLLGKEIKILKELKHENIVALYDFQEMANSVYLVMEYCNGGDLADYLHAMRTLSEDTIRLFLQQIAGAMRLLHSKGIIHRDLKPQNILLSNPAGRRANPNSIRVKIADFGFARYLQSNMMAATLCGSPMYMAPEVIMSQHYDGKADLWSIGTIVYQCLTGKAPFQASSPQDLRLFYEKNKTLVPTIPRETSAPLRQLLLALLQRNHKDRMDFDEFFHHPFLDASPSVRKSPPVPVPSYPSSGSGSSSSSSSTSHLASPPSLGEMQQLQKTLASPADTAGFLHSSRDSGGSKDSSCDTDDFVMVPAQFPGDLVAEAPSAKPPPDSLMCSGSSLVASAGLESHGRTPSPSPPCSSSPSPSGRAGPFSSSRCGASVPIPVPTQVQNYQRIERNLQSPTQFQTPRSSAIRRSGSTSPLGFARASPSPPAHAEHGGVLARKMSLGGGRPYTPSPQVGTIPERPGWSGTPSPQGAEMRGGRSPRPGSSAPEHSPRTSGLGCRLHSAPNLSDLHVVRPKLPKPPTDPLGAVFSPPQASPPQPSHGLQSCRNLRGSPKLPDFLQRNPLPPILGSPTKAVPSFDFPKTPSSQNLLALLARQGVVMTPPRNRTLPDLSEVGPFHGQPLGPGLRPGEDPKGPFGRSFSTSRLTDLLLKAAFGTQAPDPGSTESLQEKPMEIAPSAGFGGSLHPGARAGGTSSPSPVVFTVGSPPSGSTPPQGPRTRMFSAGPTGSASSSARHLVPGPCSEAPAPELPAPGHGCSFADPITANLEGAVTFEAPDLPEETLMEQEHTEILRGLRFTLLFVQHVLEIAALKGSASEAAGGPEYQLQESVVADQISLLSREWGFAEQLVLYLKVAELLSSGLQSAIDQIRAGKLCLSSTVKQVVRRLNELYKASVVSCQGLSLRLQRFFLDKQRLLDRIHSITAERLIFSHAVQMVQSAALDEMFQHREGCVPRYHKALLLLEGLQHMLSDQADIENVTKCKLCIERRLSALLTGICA
The assay is described as follows: Inhibition of ULK1 protein activity (phosphorylation function), ADP-Glo method. The format is biochemical. The protocol:
In this experiment, the inhibitory effect of a compound on the phosphorylation function of ULK1 was detected by ADP-Glo method. The inhibitory effect of the compound of the present disclosure on the ULK1 target was evaluated based on IC50.
Compound formulation: Using an ECHO (Beckman, ECHO650), the compound was serially diluted 3-fold in DMSO in a 384-well plate (PE, 6007290). A total of 10 concentration points were set, with the maximum concentration of the compound being 10 µM, and 50 nL per well. Positive control wells and negative control wells were added with 50 nL DMSO, respectively.
Reaction process: A 32 nM of ULK1 (Promega, V3521) solution was formulated, and 2.5 µL/well was transferred to the compound test wells and the negative control wells (NC). 2.5 µL/well of 1× Assay buffer was added to the positive control wells (PC). A mixed solution of 100 µM of ATP and 1.86 µM of MBP was formulated, and 2.5 µL/well was transferred to the reaction plate. After centrifugation, the reaction was initiated and incubated at room temperature for 60 min. After the reaction was completed, 5 µL/well of ADP-Glo Reagent (Promega, V9102) was added to the reaction plate. After centrifugation, the reaction was incubated at room temperature for 40 minutes. Finally, 10 µL/well of Kinase Detection Buffer was added, followed by centrifugation and incubation at room temperature for 30 min. The chemiluminescence value was read using Envision (PE, Envision2105).
Assay buffer: a reaction buffer; and Kinase Detection buffer: a detection buffer, both were taken from the ADP-Glodetection kit, purchased from Promega, model V9102.
The inhibition ratio of a compound on ULK1 activity was calculated using the following formula: [formula]
The dose-effect curve was fitted using the log(inhibitor) vs. response -Variable slope of the analysis software GraphPad Prism 8, thereby affording the IC50 value of each compound for enzyme activity.
On the technique in general: ADP-Glo turns the ADP formed in a reaction into a luminescent signal.

The subject of assay [1] is ATG13 phosphorylation level in MIA PaCa-2 cells. The assay is described as follows: Inhibition of ATG13 phosphorylation level in MIA PaCa-2 cells (Phospho-Atg13 (ser355) ELISA). The assay is classed as cell-based. Particulars: Homo sapiens, Torin1 100 nM, 24 h incubation, 8 concentrations, highest 10 µM, read-out: pATG13 ELISA IC50. The protocol: The inhibitory effect of the compound of the present disclosure on ULK1 was evaluated by testing the inhibitory effect of the compound of the present disclosure on ATG13 phosphorylation level in MIA PaCa-2 cells.
MIA PaCa-2 cells (ATCC, CRM-CRL-1420) were cultured in a complete medium, namely, a DMEM medium (Gibco, 11965-092) containing 10% fetal bovine serum (Corning, 35-081-CV), 2.5% horse serum (Gibco, 16050-122) and 1% double antibody (Gibco, 15140-122). The experiments were performed according to the requirements of the kit (Cell Signaling Technology, 17208C).
Cell plating: MIA PaCa-2 at 80% growth confluence were digested, diluted with the complete medium, and added to a 96-well cell culture plate (Costar, 3596) at 20,000 cells per well, with a volume of 90 µL.
Compound incubation: 5 µL of Torin1 and 5 µL of a serially diluted compound were added to each well so that the highest concentration of the compound in the reaction system was 10 µM. 5-fold serial dilution with 8 concentrations was performed, and the final concentration of Torin1 was 100 nM. The DMSO content in the system was 0.1%. The reaction plate was placed in an incubator at 37°C in 5% CO2, and was incubated for 24 h. 10 µL of Torin1 was added to the negative control wells (NC) to a final concentration of 100 nM, with a DMSO content of 0.1%.
Reaction detection: After the incubation was completed, the cell plate was washed with a pre-cooled DPBS (Corning, 21-031-CVC) to wash away the compound and medium. 50 µL of pre-cooled cell lysis solution was added to each well, incubated on ice for 10 min. The cell plate was centrifuged, and the supernatant was transfered to an ELISA reaction plate. Simultaneously, 50 µL of Phospho-Atg13 (ser355) rabbit detection antibody was added, followed by incubation at room temperature under shaking for 60 min. After the incubation was completed, the reaction plate was washed with a washing solution for 4 times. 100 µL of TMB substrate was added for color development reaction, followed by incubation under shaded conditions with shaking for 15 min. Finally, 100 µL of stop solution was added to each well. The reaction was terminated by shaking for 10 s, and the absorbance value at 450 nm and 560 nm were collected within 10 min using Envision (Perkin Elmer, EnVision 2105).
The inhibition ratio was calculated by subtracting the absorbance value at […] from the absorbance value at 450 nm for each well. The inhibition ratio formula is as follows: [formula]
The dose-effect curve was fitted using the log (inhibitor) vs. response -Variable slope of Graphpad Prism8, thereby affording the IC50 value of each compound for inhibiting ATG13 phosphorylation level.
In general terms: ELISA stands for enzyme-linked immunosorbent assay.

A word on the IC50: it is the midpoint of a concentration-inhibition curve.

`CN1CCN2c3ccc(Nc4ncc(C(F)(F)F)c(N[C@H]5CC[C@@H](n6cccn6)CC5)n4)cc3COCC2C1` (stereo partly shown) [Compound 6]: the IC50 on ULK1 is < 100 nM; in assay [1] it was 100 to 1000 nM.

In the case of `CN1CCN2c3ccc(Nc4ncc(C(F)(F)F)c(OCCCN5CCCCC5=O)n4)cc3OCC2C1` (stereo not shown) [Compound 12], the half-maximal inhibitory concentration (IC50) was < 100 nM at ULK1 and 100 to 1000 nM in assay [1].

In the case of `CN1CCN2c3ccc(Nc4ncc(C(F)(F)F)c(OCCCN5CCCCC5=O)n4)cc3COCC2C1` (stereo not shown) [Compound 3], the IC50 was < 100 nM at ULK1 and 100 to 1000 nM in assay [1].

For the compound `CN1CCN2c3ccc(Nc4ncc(C(F)(F)F)c(NCCCN5CCCCC5=O)n4)cc3COCC2C1` (stereo not shown) [Compound 11], the IC50 (at ULK1; in assay [1]) was < 100 nM in each case.

For `CN1CCN2c3ccc(Nc4ncc(C(F)(F)F)c(N5CCC6(CCN(C)C6)CC5)n4)cc3COCC2C1` (stereo not shown) [Compound 2], the IC50 is < 100 nM on ULK1 and > 1000 nM in assay [1].

On to `CN1CCN2c3ccc(Nc4ncc(C(F)(F)F)c(OCCCn5cccn5)n4)cc3COCC2C1` (stereo not shown) [Compound 23], for which the IC50 against ULK1 was < 100 nM; in assay [1], > 1000 nM.

On to `CN1CCN2c3ccc(Nc4ncc(C(F)(F)F)c(N5CCN(C)C(=O)C5)n4)cc3COCC2C1` (stereo not shown) [Compound 1], for which the IC50 was 100 to 1000 nM at ULK1 and > 1000 nM in assay [1].

In the case of `CN1CCN2c3ccc(Nc4ncc(C(F)(F)F)c(OCCCc5ccccc5C#N)n4)cc3COCC2C1` (stereo not shown) [Compound 9], the IC50 against ULK1 was < 100 nM; in assay [1], 100 to 1000 nM.

For the compound `CN1CCN2c3ccc(Nc4ncc(C(F)(F)F)c(N5CCC6(CCN(C)C6)C5)n4)cc3COCC2C1` (stereo not shown) [Compound 5], the IC50 on ULK1 was < 100 nM; in assay [1], 100 to 1000 nM.

As for `CN1CCN2c3ccc(Nc4ncc(C(F)(F)F)c(N5CC6(CCN(C)C6)C5)n4)cc3COCC2C1` (stereo not shown) [Compound 20], the concentration for half-maximal inhibition (IC50) is < 100 nM against ULK1 and 100 to 1000 nM in assay [1].

Consider `CN1CCN2c3ccc(Nc4ncc(C(F)(F)F)c(NC5CCN(C(=O)C6CCC6)CC5)n4)cc3COCC2C1` (stereo not shown) [Compound 21], for which the IC50 is < 100 nM at ULK1 and > 1000 nM in assay [1].

On to `CN1CCN2c3ccc(Nc4ncc(C(F)(F)F)c(N5CC6(CN(C)C6)C5)n4)cc3COCC2C1` (stereo not shown) [Compound 22], for which the results for the half-inhibitory concentration (IC50) (against ULK1; in assay [1]) were < 100 nM and 100 to 1000 nM, respectively.

For the compound `CN1CCN2c3ccc(Nc4ncc(C(F)(F)F)c(NCCCn5cccn5)n4)cc3COCC2C1` (stereo not shown) [Compound 8], the results for the IC50 (against ULK1; in assay [1]) were < 100 nM and > 1000 nM, respectively.

In the case of `CN1CCN2c3ccc(Nc4ncc(C(F)(F)F)c(N5CCC(n6cccn6)CC5)n4)cc3COCC2C1` (stereo not shown) [Compound 4], the IC50 against ULK1 was < 100 nM; in assay [1], > 1000 nM.
